Type in all cases: in vivo, BALB/c mice
In test [1] the test system is OVA-sensitized mice. Briefly: Cellular composition of bronchoalveolar lavage (BAL) fluid (airway eosinophilic inflammation). The note with it: ribavirin 10 or 30 mg/ml intranasal. Here is the method: (§1) Female BALB/c mice were obtained and maintained in the Animal Center of the College of Medicine of National Taiwan University (Taiwan, R.O.C.). Animals were used between 6 and 10 weeks of age and were age matched within each experiment. Animal experiment protocol was approved by Animal Committee of the College of Medicine of National Taiwan University (Taiwan, R.O.C.).
(§2) Mice were randomly divided into 4 groups and sensitized by an intraperitoneal injection of OVA (10 μg), which were complexed with aluminum potassium sulfate (alum, 2 mg) on day 0. All mice were boosted with another shot of OVA (10 μg) on day 14 and day 28, respectively. The mice in the negative control group were injected with phosphate buffer solution (PBS). As to the mice in the rest three groups, each group received 20 μl of 0, 10 or 30 mg/ml ribavirin together with intranasal challenge of 0.05 mg of OVA on days 38-40, respectively. AHR for mice in each group was measured on day 41, and all mice were bled and sacrificed on day 42, when the experiment ended. FIG. 1 illustrated the timeline of the above-identified OVA protocol used in this study.
Whether ribavirin could alleviate airway inflammation in OVA-sensitized mice was determined by analyzing the cellular composition in the bronchoalveolar lavage (BAL) fluid of the sensitized mice 48 hours a the last challenge. In brief, all groups of OVA sensitized mice were bled from the retro-orbital venous plexus and sacrificed. The lung was immediately lavaged via the trachea cannula with 3×1 ml of HBSS, free of ionized calcium and magnesium. The lavage fluid was centrifuged at 400 xg for 10 minutes at 4° C. After washing, the cells were resuspended in 1 ml HBSS and total cells counts were determined by use of a hemocytometer. Cytocentrifuged preparations were stained with Liu's stain for different cell counts. A minimum of 200 cells was counted and classified as macrophages, lymphocytes, neutrophils and eosinophils, based on standard morphological criteria. Results were illustrated in FIG. 3. […] On the contrary, treatment of ribavirin (10 or 30 mg/ml) decreased not only the total cell counts (FIG. 3A), but also the number of respective cell types including monocytes, neutrophils, and eosinophiles (FIG. 3B).

For test [2], the system named is OVA-sensitized mice. Description: Chemokine/cytokine levels in BAL fluid by ELISA. Here is the method: as §1, §2
OVA-sensitized mice were lavage according to the procedure described above, and the levels of chemokines were assayed by an ELISA kit (R&D) in accordance with the manufacturer's instructions. Take the measurement of eotaxin as an example, the BAL fluid was collected and added to wells precoated with anti-eotaxin antibodies over night at 4° C. After incubation for 2 hours, the plates were washed and biotin-conjugated antibodies were added. After two more hours at room temperature, HRP-avidin was then added, and the OD (at 450 nm) values were converted to concentrations of eotaxin in the BALF. The level of other chemokines including KC, IL-4 and INF-γ may be measured according to similar procedures. Results were illustrated in FIG. 5.

The subject of test [3] is OVA-sensitized mice. Briefly: Lung tissue histology (hematoxylin and eosin, light microscope). The note with it: ribavirin 30 and 10 mg/ml; FIG. 4. On the procedure: as §1, §2
After the lavage, the lungs were immediately removed and fixed in 10% neutral-buffered formalin, routinely processed, and embedded in paraffin wax. […]

The test system of test [4] is OVA-sensitized mice. Description: Airway hyper-responsiveness (AHR) to aerosolized methacholine, whole-body plethysmography (Penh). The note with it: intranasal ribavirin 10 or 30 mg/ml, Mch 0-50 mg/ml, FIG. 2. Here is the method: as §1
Mice were randomly divided into 4 groups and sensitized by an intraperitoneal injection of OVA (10 μg), which were complexed with aluminum potassium sulfate (alum, 2 mg) on day 0. All mice were boosted with another shot of OVA (10 μg) on day 14 and day 28, respectively. The mice in the negative control group were injected with phosphate buffer solution (PBS). […] AHR for mice in each group was measured on day 41, and all mice were bled and sacrificed on day 42, when the experiment ended. […]
The effect of ribavirin on airway responsiveness to aerosolized methacholine (Mch) in OVA-sensitized mice were assessed by the following procedures. […] Each reading was taken for 3 minutes and averaged for the entire time course after nebulization. Calculated Data were expressed as the fold increases above saline challenge baseline values using the dimensionless parameter Penh as described. […]

Consider `NC(=O)c1ncn([C@@H]2O[C@H](CO)[C@@H](O)[C@H]2O)n1` [ribavirin], for which, in test [1] (48 hours after last challenge, FIG. 3A), the “total cell counts in BAL fluid” value is on record as “decreased”. In test [1] (FIG. 3B), the “number of eosinophils in BAL fluid” value was “decreased”, the “number of monocytes in BAL fluid” value is recorded as “decreased” and the “number of neutrophils in BAL fluid” value was “decreased”. The “level of IF-γ in BAL fluid” value in test [2] (FIG. 5a) is “not affected”. Besides, the “level of IL-4 in BAL fluid” value in test [2] (FIG. 5b) was “not affected”. In test [2] (FIG. 5c), the “level of KC in BAL fluid” value is given as “significant reduced”. In addition, in test [2] (FIG. 5d), the “level of eotaxin in BAL fluid” value is given as “significant reduced”. Also, in test [3], the “infiltration of cells in the lung” value was “efficiently inhibit the infiltration of the cells” and the “pathological damage within the lung” value is “reduce the pathological damage within the lung”. Also, in test [4], the “airway responsiveness to Mch (Penh)” value is “inhibited the increase in airway responsiveness to Mch”.

Source of the values: patent US8258104B2, “Method and composition for treating allergic diseases” (Wholesome Biopharm Pty Ltd., priority 2006, dated 2012).
